Assay results reported in patent US4731109A, “Herbicidal 2-haloacetanilides” (Monsanto Company, priority 1982, dated 1988).

Tests used:
Yellow Nutsedge = assay: Greenhouse pre-emergence GR15/GR85 selectivity test; assay type: in vivo
From the text: (§1) A good grade of top soil is placed in aluminum pans and compacted to a depth of three-eighths to one-half inch from the top of the pan. On the top of the soil is placed a number of seeds or vegetative propagules of various plant species. The soil required to level fill the pans after seeding or adding vegetative propagules is weighed into a pan. The soil and a known amount of the active ingredient applied in a solvent or as a wettable powder suspension are thoroughly mixed, and used to cover the prepared pans. […] As an alternative procedure, the overhead irrigation may be omitted. Observations are made about 2-3 weeks after seeding and treatment.
(§2) A further guide to the effectiveness of a chemical as a selective herbicide is the "selectivity factor" ("SF") for a herbicide in given crops and weeds. The selectivity factor is a measure of the relative degree of crop safety and weed injury and is expressed in terms of the GR15 /GR85 ratio, i.e., the GR15 rate for the crop divided by the GR85 rate for the weed, both rates in kg/ha (lb/A). In the tables below, selectivity factors are shown in parenthesis following the GR85 rate for each weed; the symbol "NS" indicates "non-selective". Marginal or undetermined selectivity is indicated by a dash (--).
(§3) These weeds are commonly associated with such major crops as corn and soybeans. […] The test procedure was the same as described for Tables II and III but modified by the application of an initial overhead irrigation equivalent to 1/4" (0.64 cm) rainfall; subsequent watering was accomplished by subirrigation. "NS" means non-selective within the test limits.
(§4) Unless otherwise noted; greenhouse tests in Table VI and in other tables below involved herbicide treatments by soil incorporation and an initial overhead irrigation followed by subirrigation as described above.

Quackgrass [1] = assay: as above; assay type: in vivo
From the text: as §1, §2, §3, §4

corn = assay: as above; assay type: in vivo
From the text: (§5) A good grade of top soil is placed in aluminum pans and compacted to a depth of three-eighths to one-half inch from the top of the pan. On the top of the soil is placed a number of seeds or vegetative propagules of various plant species. The soil required to level fill the pans after seeding or adding vegetative propagules is weighed into a pan. The soil and a known amount of the active ingredient applied in a solvent or as a wettable powder suspension are thoroughly mixed, and used to cover the prepared pans. After treatment, the pans are given an initial overhead irrigation of eater, equivalent to one-fourth inch (0.64 cm) rainfall, then watered by subirrigation as need to give adequate moisture for germination and growth. As an alternative procedure, the overhead irrigation may be omitted. Observations are made about 2-3 weeks after seeding and treatment.
(§6) In the discussion and tables of data below, reference is made to herbicide application rates symbolized as "GR15 " and "GR85 "; these rates are given in kilograms per hectare (kg/ha) which are convertible into pounds per acre (lbs/A) by dividing the kg/ha rate by 1.12.
as §2
In Table IV pre-emergence herbicidal activity data are presented comparing the relative efficacy of the invention compounds and said prior art compounds as selective herbicides against the resistant and troublesome perennial weeds quackgrass and yellow nutsedge in soybeans and corn, respectively. These weeds are commonly associated with such major crops as corn and soybeans. The test data in Table IV were obtained under identical procedural conditions and represent two replicate runs (except for the compound of Example 9 which was present in one comparative test). The test procedure was the same as described for Tables II and III but modified by the application of an initial overhead irrigation equivalent to 1/4" (0.64 cm) rainfall; subsequent watering was accomplished by subirrigation. "NS" means non-selective within the test limits.
(§7) Additionally, pre-emergence herbicidal data from other tests have established that compounds according to this invention also selectively suppress quackgrass, yellow nutsedge and/or other weeds in one or more of the crops cotton, peanuts, bush beans and/or rape. For example, in Table VI are presented data showing the herbicidal selectivity of the compounds of Examples 1 and 2 against quackgrass in rape and snap beans. Unless otherwise noted; greenhouse tests in Table VI and in other tables below involved herbicide treatments by soil incorporation and an initial overhead irrigation followed by subirrigation as described above.

fall panicum = assay: as above; assay type: in vivo; conditions: Table XIV
From the text: as §1, §2, §4

alexandergrass = assay: as above; assay type: in vivo; conditions: Table XIV
From the text: as §1, §2, §4

Texas panicum = assay: as above; assay type: in vivo; conditions: Table XIV
From the text: as §1, §2, §4

red rice = assay: as above; assay type: in vivo; conditions: Table XIV
From the text: as §1, §2, §4

shattercane = assay: as above; assay type: in vivo; conditions: Table XIV
From the text: as §1, §2, §4

itchgrass = assay: as above; assay type: in vivo; conditions: Table XIV
From the text: as §1, §2, §4

seedling johnsongrass = assay: as above; assay type: in vivo; conditions: Table XIV
From the text: as §1, §2, §4

Quackgrass [2] = assay: Herbicidal effect in a variety of soil types; assay type: in vivo; conditions: for selectivity factor (GR15/GR85): in soybeans
soybeans = assay: Herbicidal effect in a variety of soil types; assay type: in vivo
wild proso millet = assay: Greenhouse pre-emergence GR15/GR85 selectivity test; assay type: in vivo, wild proso millet (panicum milicaeum); conditions: Table XIV
From the text: as §1, §2, §4

rape = assay: as above; assay type: in vivo; conditions: Table VI
From the text: as §5, §6, §2, §7
In another greenhouse test, the compounds of Examples 3-5, 9 and 10 were tested for their herbicidal efficacy against a variety of resistant annual and perennial weeds in rape.

[3] = Drummer silty clay, Table XVII A
[4] = Drummer silty clay, Table XVII B
[5] = Drummer silty clay, Table XVII C
[6] = Wabash silty clay, Table XVII B
[7] = Wabash silty clay, Table XVII C

Compound `CCOCN(C(=O)CCl)c1c(C)cccc1C(F)(F)F` [Example 1, N-(ethoxymethyl)-2'-trifluoromethyl-6'-methyl-2-chloroacetanilide] has a GR85 (Yellow Nutsedge; Table IV, Replicate #1) of 0.20 Kg/Ha, a GR85 (Yellow Nutsedge; Table IV, Replicate #2) of 0.12 Kg/Ha and a GR85 (Yellow Nutsedge; Table V) of 0.10 Kg/Ha. The GR85 (Yellow Nutsedge; Table XII) was 0.24 Kg/Ha, the “selectivity with respect to yellow nutsedge in rice” value (Yellow Nutsedge; in rice) was “non-selective” and the “selectivity factor (GR15/GR85)” value (Yellow Nutsedge; yellow nutsedge in corn, Table IV, Replicate #1) was 4. For the same compound, the “selectivity factor (GR15/GR85)” value (Yellow Nutsedge; yellow nutsedge in corn, Table IV, Replicate #2) was 6, the “selectivity factor (GR15/GR85)” value (Yellow Nutsedge; yellow nutsedge in corn, Table V) was 22 and the “selectivity factor (GR15/GR85)” value (Yellow Nutsedge; yellow nutsedge in corn, Table XII) was 2.9. For the same compound, the “selectivity factor (GR15/GR85)” value (Yellow Nutsedge; yellow nutsedge in cotton, Table XII) was 8, the “selectivity factor (GR15/GR85)” value (Yellow Nutsedge; yellow nutsedge in soybeans, Table IV, Replicate #1) was 15 and the “selectivity factor (GR15/GR85)” value (Yellow Nutsedge; yellow nutsedge in soybeans, Table IV, Replicate #2) was 18. The “selectivity factor (GR15/GR85)” value (Yellow Nutsedge; yellow nutsedge in soybeans, Table V) was 28, the “selectivity factor (GR15/GR85)” value (Yellow Nutsedge; yellow nutsedge in soybeans, Table XII) was 3.6 and the GR85 (Quackgrass [1]; Table IV, Replicate #1) was 0.18 Kg/Ha. For the same compound, the GR85 (Quackgrass [1]; Table IV, Replicate #2) was 0.16 Kg/Ha, the GR85 (Quackgrass [1]; Table V) was 0.08 Kg/Ha and the “selectivity factors relative to prior art compounds” value (Quackgrass [1]; Table V, quackgrass and yellow nutsedge in corn and soybeans) was “exceedingly higher selectivity factors”. The “GR85 Rate” value (Quackgrass [1]; Table VI) was 0.12 Kg/Ha, the GR85 (Quackgrass [1]; Table XIII) was 0.07 Kg/Ha and the “selectivity against quackgrass in wheat” value (Quackgrass [1]; in wheat) was “non-selective”. The “selectivity factor (GR15/GR85)” value (Quackgrass [1]; quackgrass in corn, Table IV, Replicate #1) was 4, the “selectivity factor (GR15/GR85)” value (Quackgrass [1]; quackgrass in corn, Table IV, Replicate #2) was 5 and the “selectivity factor (GR15/GR85)” value (Quackgrass [1]; quackgrass in corn, Table V) was 27.5. The “selectivity factor (GR15/GR85)” value (Quackgrass [1]; quackgrass in corn, Table XIII) was 10, the “selectivity factor (GR15/GR85)” value (Quackgrass [1]; quackgrass in rape, Table VI) was 7 and the “selectivity factor (GR15/GR85)” value (Quackgrass [1]; quackgrass in snapbeans, Table VI) was 7. The “selectivity factor (GR15/GR85)” value (Quackgrass [1]; quackgrass in soybeans, Table IV, Replicate #1) was 17, the “selectivity factor (GR15/GR85)” value (Quackgrass [1]; quackgrass in soybeans, Table IV, Replicate #2) was 14 and the “selectivity factor (GR15/GR85)” value (Quackgrass [1]; quackgrass in soybeans, Table V) was 35. The “selectivity factor (GR15/GR85)” value (Quackgrass [1]; quackgrass in soybeans, Table XIII) was 11.6, the GR15 (corn; Table IV, Replicate #1) was 0.76 Kg/Ha and the GR15 (corn; Table IV, Replicate #2) was 0.76 Kg/Ha. It also gave a GR15 (corn; Table V) of 2.2 Kg/Ha, a GR15 (corn; Table XII) of 0.69 Kg/Ha and a GR15 (corn; Table XIII) of 0.69 Kg/Ha. The GR15 (corn; corn/purple nutsedge) was 0.67 kg/ha, the “GR85 Rate” value (fall panicum) was < 0.07 Kg/Ha and the “selectivity factor (GR15/GR85)” value (fall panicum; in soybeans) was > 16. For the same compound, the “GR85 Rate” value (alexandergrass) was 0.56 Kg/Ha, the “selectivity factor (GR15/GR85)” value (alexandergrass; in soybeans) was > 2.0 and the “GR85 Rate” value (Texas panicum) was 1.1 Kg/Ha. For the same compound, the “selectivity factor (GR15/GR85)” value (Texas panicum; in soybeans) was > 1.0, the “GR85 Rate” value (red rice) was 0.2 Kg/Ha and the “selectivity factor (GR15/GR85)” value (red rice; in soybeans) was > 5.5. For the same compound, the “GR85 Rate” value (shattercane) was 0.28 Kg/Ha, the “selectivity factor (GR15/GR85)” value (shattercane; in soybeans) was > 4.0 and the “GR85 Rate” value (itchgrass) was 1.1 Kg/Ha. For the same compound, the “selectivity factor (GR15/GR85)” value (itchgrass; in soybeans) was > 1.0, the “GR85 Rate” value (seedling johnsongrass) was 0.14 Kg/Ha and the “selectivity factor (GR15/GR85)” value (seedling johnsongrass; in soybeans) was > 8.0. The GR85 (Quackgrass [2]; [3]) was 0.11 Kg/Ha, the GR85 (Quackgrass [2]; [4]) was 0.17 Kg/Ha and the GR85 (Quackgrass [2]; [5]) was 0.13 Kg/Ha. It also gave a GR85 (Quackgrass [2]; Florida muck, Table XVII A) of 0.52 Kg/Ha, a GR85 (Quackgrass [2]; Florida muck, Table XVII B) of 0.78 Kg/Ha and a GR85 (Quackgrass [2]; Florida muck, Table XVII C) of 0.74 Kg/Ha. It also gave a GR85 (Quackgrass [2]; Florida sand, Table XVII A) of 0.2 Kg/Ha, a GR85 (Quackgrass [2]; Florida sand, Table XVII B) of 0.48 Kg/Ha and a GR85 (Quackgrass [2]; Ray silt loam, Table XVII A) of 0.22 Kg/Ha. For the same compound, the GR85 (Quackgrass [2]; Ray silt loam, Table XVII B) was 0.13 Kg/Ha, the GR85 (Quackgrass [2]; Ray silt loam, Table XVII C) was 0.10 Kg/Ha and the GR85 (Quackgrass [2]; Sarpy silty clay, Table XVII A) was 0.28 Kg/Ha. The GR85 (Quackgrass [2]; Sarpy silty clay, Table XVII B) was 0.10 Kg/Ha, the GR85 (Quackgrass [2]; Sarpy silty clay, Table XVII C) was 0.13 Kg/Ha and the GR85 (Quackgrass [2]; Wabash silty clay, Table XVII A) was 0.28 Kg/Ha. The GR85 (Quackgrass [2]; [6]) was 0.13 Kg/Ha, the GR85 (Quackgrass [2]; [7]) was 0.07 Kg/Ha and the “selectivity factor (GR15/GR85)” value (Quackgrass [2]; [3]) was 20. For the same compound, the “selectivity factor (GR15/GR85)” value (Quackgrass [2]; [4]) was 13, the “selectivity factor (GR15/GR85)” value (Quackgrass [2]; [5]) was 14.5 and the “selectivity factor (GR15/GR85)” value (Quackgrass [2]; Florida muck, Table XVII A) was > 4.5. For the same compound, the “selectivity factor (GR15/GR85)” value (Quackgrass [2]; Florida muck, Table XVII B) was > 3, the “selectivity factor (GR15/GR85)” value (Quackgrass [2]; Florida muck, Table XVII C) was > 3 and the “selectivity factor (GR15/GR85)” value (Quackgrass [2]; Florida sand, Table XVII A) was 10. The “selectivity factor (GR15/GR85)” value (Quackgrass [2]; Florida sand, Table XVII B) was 4.5, the “selectivity factor (GR15/GR85)” value (Quackgrass [2]; Ray silt loam, Table XVII A) was 5 and the “selectivity factor (GR15/GR85)” value (Quackgrass [2]; Ray silt loam, Table XVII B) was 16.5. The “selectivity factor (GR15/GR85)” value (Quackgrass [2]; Ray silt loam, Table XVII C) was 19.5, the “selectivity factor (GR15/GR85)” value (Quackgrass [2]; Sarpy silty clay, Table XVII A) was > 8 and the “selectivity factor (GR15/GR85)” value (Quackgrass [2]; Sarpy silty clay, Table XVII B) was 22. The “selectivity factor (GR15/GR85)” value (Quackgrass [2]; Sarpy silty clay, Table XVII C) was > 16.5, the “selectivity factor (GR15/GR85)” value (Quackgrass [2]; [6]) was 17 and the “selectivity factor (GR15/GR85)” value (Quackgrass [2]; [7]) was 31.5. The GR15 (soybeans; [3]) was > 2.2 Kg/Ha, the GR15 (soybeans; [4]) was 2.2 Kg/Ha and the GR15 (soybeans; [5]) was 2.0 Kg/Ha. For the same compound, the GR15 (soybeans; Florida muck, Table XVII A) was > 2.2 Kg/Ha, the GR15 (soybeans; Florida muck, Table XVII B) was 2.2 Kg/Ha and the GR15 (soybeans; Florida muck, Table XVII C) was > 2.2 Kg/Ha. The GR15 (soybeans; Florida sand, Table XVII A) was 2.0 Kg/Ha, the GR15 (soybeans; Florida sand, Table XVII B) was 2.2 Kg/Ha and the GR15 (soybeans; Ray silt loam, Table XVII A) was 1.1 Kg/Ha. For the same compound, the GR15 (soybeans; Ray silt loam, Table XVII B) was 2.2 Kg/Ha, the GR15 (soybeans; Ray silt loam, Table XVII C) was 2.0 Kg/Ha and the GR15 (soybeans; Sarpy silty clay, Table XVII A) was > 2.2 Kg/Ha. The GR15 (soybeans; Sarpy silty clay, Table XVII B) was 2.2 Kg/Ha, the GR15 (soybeans; Sarpy silty clay, Table XVII C) was > 2.2 Kg/Ha and the GR15 (soybeans; [6]) was 2.2 Kg/Ha. For the same compound, the GR15 (soybeans; [7]) was 2.2 Kg/Ha, the “GR85 Rate” value (wild proso millet) was 1.1 Kg/Ha and the “selectivity factor (GR15/GR85)” value (wild proso millet; in soybeans) was > 1.0. For the same compound, the “GR15 Rate” value (rape) was 0.85 Kg/Ha.
